Literature values as cited in patent US20080260771A1, “PROSTATE DISORDER(S) PHYTO-NUTRACEUTICAL SYNERGISTIC COMPOSITION” (priority 2006, published 2008).

Experiments:
prostate cancer = settings: supranutritional doses of selenium, clinical trials
[1] = system: human prostate cancer cells; settings: not in normal prostate epithelial cells

Compound	reduction of prostate cancer incidence (prostate cancer) [%]	apoptotic death [1]	tumor growth and lung metastases (prostate tumor)
[Se] [Selenium]	50	induces rapid apoptotic death	–
Vitamin E	–	–	significantly suppressed tumor growth
